{
  "source": "patent US20120190004A1",
  "about": "“METHODS AND COMPOSITIONS FOR THE CRYOPRESERVATION OF DUCKWEED” (Biolex Therapeutics, Inc., priority 2009, published 2012)",
  "system": "L. minor",
  "test": "Cryopreservation success rate after dormancy induction in sugar-supplemented medium",
  "format": "in vivo, Lemna minor",
  "data": [
    {"smiles": "OC[C@H]1O[C@@](CO)(O[C@H]2O[C@H](CO)[C@@H](O)[C@H](O)[C@H]2O)[C@@H](O)[C@@H]1O", "note": "[Sucrose, sucrose]", "values": [
      {"measurement": "Cryopreservation success rate", "setting": "dormancy induction 7-Day, 4° C. with no light", "result": "0% (0/28)"},
      {"measurement": "Cryopreservation success rate", "setting": "dormancy induction 7-Day, 9-10° C. with no light", "result": "14.82% (4/27)"},
      {"measurement": "Cryopreservation success rate", "setting": "dormancy induction 7-Day, fluctuating temperature and light", "result": "33.3% (9/27)"},
      {"measurement": "Cryopreservation success rate", "setting": "dormancy induction 7-Day, fluctuating temperature with no light", "result": "65.39% (17/26)"},
      {"measurement": "Cryopreservation success rate", "setting": "dormancy induction 14-Day, 4° C. with no light", "result": "0% (0/22)"},
      {"measurement": "Cryopreservation success rate", "setting": "dormancy induction 14-Day, 9-10° C. with no light", "result": "73.08% (19/26)"},
      {"measurement": "Cryopreservation success rate", "setting": "dormancy induction 14-Day, fluctuating temperature and light", "result": "96% (24/25)"},
      {"measurement": "Cryopreservation success rate", "setting": "dormancy induction 14-Day, fluctuating temperature with no light", "result": "100% (24/24)"},
      {"measurement": "Cryopreservation success rate", "setting": "dormancy induction 21-Day, 4° C. with no light", "result": "4.17% (1/24)"},
      {"measurement": "Cryopreservation success rate", "setting": "dormancy induction 21-Day, 9-10° C. with no light", "result": "91.67% (22/24)"},
      {"measurement": "Cryopreservation success rate", "setting": "dormancy induction 21-Day, fluctuating temperature with no light", "result": "86.96% (20/23)"},
      {"measurement": "Cryopreservation success rate", "setting": "dormancy induction 28-Day, 4° C. with no light", "result": "0% (0/20)"},
      {"measurement": "Cryopreservation success rate", "setting": "dormancy induction 28-Day, 9-10° C. with no light", "result": "97.37% (37/38)"},
      {"measurement": "Cryopreservation success rate", "setting": "dormancy induction 28-Day, fluctuating temperature and light", "result": "94.29% (33/35)"},
      {"measurement": "Cryopreservation success rate", "setting": "dormancy induction 28-Day, fluctuating temperature with no light", "result": "100% (30/30)"},
      {"measurement": "Cryopreservation success rate", "setting": "first set of experiments, single sugars 90 mg/ml unless the label says 20 mg/ml, six sugar combo 15 mg/ml each, listed as 20 mg/ml Sucrose", "result": "42.3% (11/26)"},
      {"measurement": "Cryopreservation success rate", "setting": "second set of experiments, single sugars 90 mg/ml unless the label says 20 mg/ml, six sugar combo 15 mg/ml each, listed as 20 mg/ml Sucrose", "result": "43.8% (7/16)"},
      {"measurement": "Cryopreservation success rate", "setting": "sugars at two concentrations: 90 mg/ml (1X) and 270 mg/ml (3X), listed as Sucrose 1X", "result": "88.9% (16/18)"},
      {"measurement": "Cryopreservation success rate", "setting": "sugars at two concentrations: 90 mg/ml (1X) and 270 mg/ml (3X), listed as Sucrose 3X", "result": "0% (0/11)"},
      {"measurement": "Cryopreservation success rate", "setting": "various concentrations of six sugar combination: total sugar 90 (1X), 216 (2.4X), 342 mg/ml (3.8X), or 20 mg/ml sucrose", "result": "92.9% (26/28)"}
    ]}
  ]
}
